# From patent US6160175A, “Naphthyl acetamides as sPLA2 inhibitors” (Eli Lilly and Company, priority 1996, dated 2000)
# Target: T1, recombinant human secreted phospholipase A2 (Homo sapiens, UniProt P14555)
# T1 sequence (P14555 21-144): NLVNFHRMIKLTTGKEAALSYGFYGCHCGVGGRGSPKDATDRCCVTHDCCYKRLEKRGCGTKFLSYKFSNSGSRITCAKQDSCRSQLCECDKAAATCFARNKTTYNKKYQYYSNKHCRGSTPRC
# Test: Chromogenic assay; Human Secreted Phospholipase A2 Inhibition Tests
# Assay type: biochemical
# Details: racemic diheptanoyl thio-PC substrate 1 mM, Triton X-100 0.29 mM, pH 7.5, 40° C., 30 minutes, 405 nm; read-out: Inhibition of human secreted PLA2, IC50 ± mean deviation (3-4 tests)
# From the text: The following chromogenic assay procedure was used to identify and evaluate inhibitors of recombinant human secreted phospholipase A2. The assay described herein has been adapted for high volume screening using 96 well microtiter plates. A general description of this assay method is found in the article, "Analysis of Human Synovial Fluid Phospholipase A2 on Short Chain Phosphatidylcholine-Mixed Micelles: Development of a Spectrophotometric Assay Suitable for a Microtiterplate Reader", by Laure J. Reynolds, Lori L. Hughes, and Edward A. Dennis, Analytical Biochemistry, 204, pp. 190-197, 1992 (the disclosure of which is incorporated herein by reference):
# A measured volume of racemic dipheptanoyl thio PC supplied in chloroform at a concentration of 100 mg/ml is taken to dryness and redissolved in 10 millimolar TRITON X-100™ nonionic detergent aqueous solution. Reaction Buffer is added to the solution, then DTNB to give the Reaction Mixture.
# The reaction mixture thus obtained contains 1 mM diheptanoly thio-PC substrate, 0.29 mm Triton X-100™ detergent, and 0.12 mm DTMB in a buffered aqueous solution at pH 7.5.
# 1. Add 0.2 ml reaction mixture to all wells;
# 2. Add 10 ul test compound (or solvent blank) to appropriate wells, mix 20 seconds;
# 3. Add 50 nanograms of sPLA2 (10 microliters) to appropriate wells;
# 4. Incubate plate at 40° C. for 30 minutes;
# 5. Read absorbance of wells at 405 nanometers with an automatic plate reader.
# All compounds were tested in triplicate. Typically, compounds were tested at a final concentration of 5 ug/ml. […] Lack of color development at 405 nanometers evidenced inhibition. Compounds initially found to be active were reassayed to confirm their activity and, if sufficiently active, IC50 values were determined. […] In all cases, % inhibition measured at 405 nanometers generated by enzyme reactions containing inhibitors relative to the uninhibited control reactions was determined. […] IC50 were determined by plotting log concentration versus inhibition values in the range from 10-90% inhibition.
row,IC50,Compound
1,0.87 µM,"NC(=O)Cc1ccc(Cc2ccccc2)c2ccccc12 [Compound A, 4-Benzyl-1-naphphylacetamide]"
2,51 µM,"O=C(O)Cc1ccc(Oc2ccccc2)c2ccccc12 [Compound B, 4-Phenoxynaphth-1-yl acetic acid]"
3,4.4 µM,"NC(=O)Cc1ccc(Oc2ccccc2)c2ccccc12 [Compound C, 4-Phenoxynaphth-1-yl acetamide]"
